How the values were obtained:
cisplatin-induced emesis = test: Cisplatin-induced emesis in dogs; type: in vivo; conditions: Canis lupus familiaris; 1 mg/kg IV; cisplatin 3.0 mg/kg IV; 5 hours; read-out: Antiemetic: % change in emetic episodes in dogs induced by cisplatin
Method: A. Effect of Invention Compounds on Cisplatin-induced Emesis in Dogs
The procedure used to test compounds of the present invention for antiemetic properties is a modification of the method of Gylys et al., Res. Commun. Chem. Pathol. Pharm., 23, 61(1979).
Adult, mongrel unfasted dogs of both sexes are randomly assigned into treatment groups, with each treatment group consisting of four dogs. On the dosing day all dogs are given cisplatin, 3.0 mg/kg, intravenously. Sixty minutes later, the dogs in the control treatment group are given deionized water, 0.1 mL/kg intravenously and dogs receiving test compounds are given the test compound in solution (1 mg/kg, IV). All doses are administered as a solution by means of a syringe and needle, and each dog's emetic episodes are recorded for 5 hours after the administration of cisplatin.
^2 % change in emetic episodes in dogs at 1 mg/kg IV induced by […]

[1] = system: gastric emptying of test meal; test: Gastric emptying of a test meal in fasted rats; type: in vivo; conditions: Rattus norvegicus, 1 h; for change in vivo at 9 mg/kg: 9 mg/kg IP (printed 09); for change in vivo at 10 mg/kg: 10 mg/kg IP
Method: B. Effect of Invention Compounds on Gastric Emptying of a Test Meal in Fasted Rats
The procedure used to test compounds of the present invention for gastric motility enhancing activity is that of Droppleman et al., J. Pharmacol. Methods, 4,227(1980).
Each animal is dosed intraperitoneally (9 or 10 mg/kg) with a test compound or control. After 30 minutes each animal is given 3 mL of a methylcellulose-based test meal formulation. Sixty minutes after administration of the test meal, each animal is sacrificed by cervical dislocation, and the stomach is removed and weighed. The stomach is cut open, rinsed and dried, and reweighed. This difference between the full and empty weights (amount of meal remaining in stomach) is subtracted from the weight of the original test meal to determine the meal amount emptied from the stomach during the test period.
^1 % change in gastric emptying of test meal in rats (dose, mg/kg IP)

[2] = system: von Bezold-Jarisch reflex evoked by 5-HT (serotonin); test: Antagonism of the von Bezold-Jarisch reflex evoked by 5-HT in anaesthetized rats; type: in vivo; conditions: Rattus norvegicus; 0.0316 mg/kg IV in anesthetized rats; read-out: Antiserotonin: von Bezold-Jarisch reflex % change in serotonin-induced bradycardia
Method: F. Antagonism of the von Bezold-Jarisch Reflex
The compounds are evaluated for antagonism of the von Bezold-Jarisch reflex evoked by 5-HT (serotonin) in anaesthetized rats according to the method described in European Patent Application 200-444 (Beecham Group).
Male rats (250-350 g) are anaesthetized with urethane (1.25 g/kg intraperitoneally), and blood pressure and heart rate are recorded as described by Fozard J. R. et al., J. Cardiovasc. Pharmacol. 2, 229-245 (1980). A submaximal dose of 5-HT (usually […]) is given repeatedly by the intravenous route and changes in heart rate quantified. Compounds are given intravenously and the inhibition of the 5-HT evoked response is measured. In addition, the concentration required to reduce the 5-HT evoked response to 50% of the control response (ED50) can be determined.
^3 Von BezoldJarisch reflex % change in serotonininduced bradycardia
at 0.0316 mg/kg IV in anesthesized rats.

[3] = system: exploratory light/dark behavior; test: Anxiolytic test, exploratory light/dark (mice); type: in vivo; conditions: 10 mg/kg IP, significant increase as compared with the controls (30%)
Method: Exploratory Light/Dark (mice)
This method has been described by Young and Johnson (1988) and is a modification of the procedure described by Costall and Naylor (1988). A two compartment light-dark activity monitoring device (Digiscan Model RXYZCM16, Omnitech Electronics Inc., Columbus, Ohio) is used. A 90W light source located 30 cm above the box provides light to the lit portion of the apparatus. Behavioral testing is conducted in a sound-attenuated, darkened room illuminated with red light (25W red bulb) only.
Each animal (mouse) receives a dose or doses of either the test, reference, or control article. The animal is placed at the center of the illuminated area and the behavioral activity tallied over a 5 minute period by use of the Digiscan analyzer. Behavioral variables recorded included: the time spent in the lit and dark areas, the number of rearings in the lit and dark areas, the number of locomotor activity counts in the lit and dark areas, the number of transitions between the lit and dark and lit areas, the latency to make the first transition from the lit area to the dark area, rearing time in the lit and dark areas, locomotor time in the lit and dark areas, and resting time in the lit and dark areas. Appropriate statistical analyses for each measure are performed. […]

canine Purkinje fibers = test: Cellular electrophysiologic effects in canine Purkinje fibers in vitro; type: cell-based, dog (canine); conditions: Canis lupus familiaris, 20 min, 10^-4 M, after 20 min exposure, read-out: increase in action potential duration at 90% repolarization (APD90)
Method: G. Measurement of Cellular Electrophysiologic Effects in Canine Purkinje Fibers in Vitro
Dogs (12-18 kg) were anesthetized with sodium pentobarbital (30 mg/kg IV). The heart of each dog was rapidly removed through a right lateral thoracotomy and placed in a chilled, oxygenated Tyrode's solution. Purkinje fibers from the right and left ventricles were excised and mounted in a Lucite chamber. The tissue was superfused at a rate of 10-15 mL/min with Tyrode's solution. The temperature of the superfused Tyrode's was maintained at 37° C. and gassed with 95% oxygen-5% carbon dioxide mixture.
The Purkinje fibers were stimulated (paced at cycle length of 400 to 1000 msec) with a silver bipolar wire electrode placed on the surface of the tissue. Transmembrane action potentials were recorded with a glass capillary microelectrodes filled with 3M KCl. […] The measurements derived from the action potential were Vmax (upstroke velocity), APD50 (action potential duration at 50% repolarization), and APD90 (action potential duration at 90% repolarization) as previously described (Bigger and Mandel, 1970; Wu and Hoffman, 1987). […] Measurements of the action potential parameters were recorded after 20 min of test drug exposure. […] Changes in the action potential measurements produced by the test compound were analyzed for statistical significance using a paired-t test. […]

| Structure (SMILES) | change in vivo at 1 mg/kg (cisplatin-induced emesis) [%] | change in vivo at 9 mg/kg [1] [%] | change in vivo at 10 mg/kg [1] [%] | change in vivo at 0.0316 mg/kg [2] [%] | time spent in the lit area [3] [%] | activation at 100 µM (canine Purkinje fibers) [%] |
| --- | --- | --- | --- | --- | --- | --- |
| CNc1cc(OC)c(C(=O)NCC23CCCN(CC2)C3)cc1Cl (stereo not drawn) [Example 2] | -63 | 62 |  |  |  |  |
| COc1cc(N)c(Cl)cc1C(=O)NCC12CCCN(CC1)C2 (stereo not drawn) [Example 1, 4-Amino-N-(1-azabicyclo[3.2.1]oct-5ylmethyl)-5-chloro-2-methoxybenzamide] | -76 |  | 47 |  |  |  |
| COCCOc1cc(N)c(Cl)cc1C(=O)NCC12CCCN(CC1)C2 (stereo not drawn) [Example 3] | -51 |  | 31 | -74 |  |  |
| CNc1cc(OC)c(C(=O)NCC23CCCN(CCC2)C3)cc1Cl [Example 5, N-(1-Azabicyclo[3.3.1]non-5-ylmethyl)-5-chloro-2-methoxy-4-(methylamino)benzamide] | -71 | 58 |  |  |  |  |
| Cn1cc(C(=O)OCC23CCCN(CC2)C3)c2ccccc21 (stereo not drawn) [Example 12, 1-Methyl-1H-indole-3-carboxylic acid 1-azabicyclo[3.2.1]oct-5-ylmethyl ester] |  |  |  | -81 | 58 |  |
| O=C(OCC12CCCN(CC1)C2)c1c[nH]c2ccccc12 (stereo not drawn) [Example 11, 1H-Indole-3-carboxylic acid 1-azabicyclo[3.2.1]oct-5-ylmethyl ester] | -85 |  |  | -86 |  |  |
| COc1cc(N)c(Cl)cc1C(=O)NCC12CCCN(CCC1)C2 [Example 4, 4-Amino-N-(1-azabicyclo[3.3.1]non-5-ylmethyl)-5-chloro-2-methoxybenzamide] | -62 |  | 31 | -32 |  |  |
| COc1cc(N)c(Cl)cc1C(=O)OCC12CCCN(CCC1)C2 [Example 13, 4-Amino-5-chloro-2-methoxybenzoic acid 1-azabicyclo[3.3.1]non-5-ylmethyl ester] | -50 | 41 |  | -23 |  |  |
| CS(=O)(=O)Nc1ccc(C(=O)NCC23CCCN(CCC2)C3)cc1 [Example 9, N-(1-Azabicyclo[3.3.1]non-5-ylmethyl)-4-[(methylsulfonyl)amino]benzamide] |  |  |  |  |  | 8.5 |
| O=C(OCC12CCCN(CCC1)C2)c1c[nH]c2ccccc12 [Example 14, 1H-Indole-3-carboxylic acid 1-azabicyclo[3.3.1]non-5-ylmethyl ester] |  | 10 |  | -0.3 |  |  |
| Cn1cc(C(=O)NCC23CCCN(CCC2)C3)c2ccccc21 [Example 8] | -49 |  |  |  |  |  |
| Cn1nc(C(=O)OCC23CCCN(CC2)C3)c2ccccc21 (stereo not drawn) [Example 15, 1-Methyl-1H-indazole-3-carboxylic acid 1-azabicyclo[3.2.1]oct-5-ylmethyl ester] | -93 |  | 31 | -72 |  |  |
| COCCOc1cc(N)c(Cl)cc1C(=O)NCC12CCCN(CCC1)C2 [Example 6, 4-Amino-N-(1-azabicyclo[3.3.1]non-5-ylmethyl)-5-chloro-2-(2-methoxyethoxy)benzamide] |  |  |  | -30 |  |  |
| COc1cc(N)c(Cl)cc1C(=O)OCC12CCCN(CC1)C2 (stereo not drawn) [Example 10, 4-Amino-5-chloro-2-methoxybenzoic acid 1-azabicyclo[3.2.1]oct-5-ylmethyl ester] | -82 |  | 47 | -82 |  |  |

— patent publication US5244907A, “Carbocyclic carboxylic acid amides and esters of azabicyclic compounds as gastric prokinetic, antiemetic, anxiolytic and antiarrhythmic agents” (A. H. Robins Company, Incorporated, priority 1992, dated 1993)
